Where two headings read alike, the source gives them in different places.
Legend:
[1] = test system: human breast cancer cell line MCF-7; assay: Proliferative activity in vitro (ATP luminescence, 6 days); format: cell-based; settings: for activity at 1 µM: read-out: Effect at 10^−6 M (% of control); for activity at 0.01 µM: read-out: Effect at 10^−8 M (% of control); for EC50: MCF-7, six days, read-out: Cell proliferation EC50 (nM) ± S.E.M
Experimental: The proliferative effect of the compounds of the invention was evaluated on human breast cancer cell line MCF-7 by measuring the number of viable cells after 6 days of treatment.
MCF-7 cells were routinely cultured as monolayers in Dulbecco's modified Eagle's medium (DMEM) containing 4 mM Glutamax and 4.5 g/l glucose and supplemented with 5% (v/v) decomplemented fetal calf serum (dFCS) and antibiotics.
Cells were plated at 2.10^6 cells/75 cm^2 flasks and incubated at 37° C. in a humidified atmosphere containing 5% CO2. They were passaged once weekly to maintain continuous exponential growth. Forty eight hours before the start of an experiment, near-confluent cells were changed to a phenol red free DMEM containing 5% steroid-stripped dFCS by dextran coated charcoal treatment (DCC-DMEM). On the day of the experiment, cells were harvested by brief exposure to trypsin and plated in DCC-DMEM in 96-well microplates at a density of 4.10^3 cells/well. The next day, the medium was renewed and test compounds, diluted appropriately in estrogen-free DMEM, were added and incubated for six days. […] At the end of the incubation period, cell proliferation was evaluated by quantitation of the cellular ATP content which signals the presence of metabolically active cells.
The assay, based on the ATP-dependent luciferase reaction, enables generation of a luminescent signal proportional to the amount of ATP present. As there is a linear relationship between the amount of ATP and the number of viable cells present in culture, the luminescent signal allowed to precisely evaluate cell proliferation (Crouch, S. P. M. et al. J. Immunol. Meth., 1993, 160, 81; Kangas, L. et al. Med. Biol. 1984, 62, 338; Petty, R. D. et al. J. Biolum. Chemilum. 1995, 10, 29).
In brief, the microplates were inverted to discard the culture medium and 100 μl of fresh medium was added into each well. The microplates were equilibrated at room temperature for approximately 30 minutes. 100 μl of luciferase reagent was added into each well and contents were mixed for 2 minutes to induce cell lysis. The plates were incubated at room temperature for 10 minutes to stabilize luminescence signal.
Luminescence was recorded using a microplate reader (Wallac, model 1420 Victor^2) and results were expressed as percentage of the control luminescence. Sigmoidal dose-response curves were plotted and EC50 values were calculated for each compound in order to evaluate their proliferative potency.

[2] = molecular target: T1, purified full-length recombinant human ERα (Homo sapiens, UniProt P03372); assay: Estrogen receptor α competitive radiometric binding assay ([3H]-E2); settings: for RBA (%) Mean ± S.E.M, ER α: ratio of IC50s of E2 and competitor, E2 set at 100%
T1 sequence (P03372 1-595): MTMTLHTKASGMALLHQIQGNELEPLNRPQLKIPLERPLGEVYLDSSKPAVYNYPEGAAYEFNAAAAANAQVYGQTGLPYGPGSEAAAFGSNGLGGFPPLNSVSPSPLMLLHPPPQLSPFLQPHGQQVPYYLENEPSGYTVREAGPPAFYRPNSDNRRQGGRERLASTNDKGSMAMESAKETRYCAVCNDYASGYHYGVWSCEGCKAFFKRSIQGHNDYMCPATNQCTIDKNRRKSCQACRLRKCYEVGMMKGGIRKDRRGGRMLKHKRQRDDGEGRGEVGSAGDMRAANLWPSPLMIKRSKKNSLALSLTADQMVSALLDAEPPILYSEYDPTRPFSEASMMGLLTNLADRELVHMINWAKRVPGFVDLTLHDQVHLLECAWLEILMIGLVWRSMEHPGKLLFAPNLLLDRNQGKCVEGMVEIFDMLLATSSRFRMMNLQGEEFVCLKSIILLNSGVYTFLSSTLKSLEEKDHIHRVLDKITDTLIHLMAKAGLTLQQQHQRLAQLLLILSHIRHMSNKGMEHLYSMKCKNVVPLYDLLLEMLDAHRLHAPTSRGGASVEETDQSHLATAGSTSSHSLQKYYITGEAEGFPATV
Experimental: Relative binding affinities (RBA) were determined by competitive radiometric binding assays, using purified full-length recombinant human ERα and ERβ (PanVera, Madison, Wis.). […] After shaking for a few seconds and centrifugation at 1500 g and 4° C. for 10 minutes, 150 μl/well of Optiphase ‘Super Mix’ scintillation liquid was mixed with 50 μl of supernatant of each sample and the radioactivity was measured in a MicroBeta counter (Wallac, Turku, Finland). Data were evaluated by a sigmoidal dose-response curve (Prism, GraphPad Software Inc.) to estimate the concentration of competitor at half-maximal specific binding (IC50). […] The selectivity for ERα and ERβ was obtained from the ratio R of the IC50 for ERα to the IC50 for ERβ for each test compound.

[3] = test system: Prepubescent female rats; assay: Estrogenic / uterotrophic activity in vivo (uterus wet weight); parameters: species or system rat; settings: Table 4, orally 3 mg/rat/day for 3 days; for change in vivo at 3 mg: Rattus norvegicus, po, 72 h, read-out: % stimulation vs vehicle (uterus weight)
Experimental: Prepubescent female rats were orally treated at 3 mg/rat/day for 3 days. On the day following the last treatment, uteri were removed and wet weights were recorded.
The results are expressed as % of stimulation of uterus weight in comparison with vehicles. […]
Prepubescent female rats were orally treated with 0.3; 1; 3 or 10 mg/rat/day for 3 days. On the day following the last treatment, uteri were removed and wet weights were recorded.

[4] = molecular target: purified full-length recombinant human ERβ (Homo sapiens, UniProt Q92731); assay: Estrogen receptor β competitive radiometric binding assay ([3H]-E2); settings: for RBA (%) Mean ± S.E.M, ER β: ratio of IC50s of E2 and competitor, E2 set at 100%; for R (IC50s) αβ: ratio of the IC50 for ERα to the IC50 for ERβ; for selectivity for the human recombinant estrogen receptor β: in words
Chain of purified full-length recombinant human ERβ (Q92731 whole entry): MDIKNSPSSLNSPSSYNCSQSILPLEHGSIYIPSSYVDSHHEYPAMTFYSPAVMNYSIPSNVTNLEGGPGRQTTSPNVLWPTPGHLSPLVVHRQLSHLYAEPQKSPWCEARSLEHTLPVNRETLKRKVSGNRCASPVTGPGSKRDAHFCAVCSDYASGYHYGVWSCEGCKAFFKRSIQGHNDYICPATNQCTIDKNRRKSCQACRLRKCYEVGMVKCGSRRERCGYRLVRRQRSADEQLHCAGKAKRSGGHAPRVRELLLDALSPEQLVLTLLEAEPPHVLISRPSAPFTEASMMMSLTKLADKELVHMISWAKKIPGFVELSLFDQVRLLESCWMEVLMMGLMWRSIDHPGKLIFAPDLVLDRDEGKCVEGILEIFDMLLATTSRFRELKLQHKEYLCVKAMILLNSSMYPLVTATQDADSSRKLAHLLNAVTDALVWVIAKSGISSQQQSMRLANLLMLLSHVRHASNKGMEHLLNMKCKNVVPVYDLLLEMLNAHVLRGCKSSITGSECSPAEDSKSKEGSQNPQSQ

[5] = test system: human endometrial adenocarcinoma Ishikawa cells; assay: Estrogenic and anti-estrogenic activities in vitro: induction of alkaline phosphatase (APase) activity; format: cell-based; settings: for EC50: compound alone, four days, ND = not detected, read-out: Estrogenic activity EC50 (nM) ± S.E.M; for estrogenic effect in alkaline phosphatase activity in the Ishikawa cell model: in words
Experimental: The estrogenic and anti-estrogenic potentials of new compounds were evaluated using the induction of alkaline phosphatase (APase) activity, an estrogen specific response in human endometrial adenocarcinoma Ishikawa cells (Botella J., J Steroid Biochem Molec Biol, 1995, 55: 77-84; Littlefield et al., Endocrinology, 1990, 127: 2757-2762).
Ishikawa cells were routinely grown as monolayers in Dulbecco's Modified Eagle's medium (DMEM) containing 4 mM Glutamax I and supplemented with 10% of decomplemented fetal calf serum (dFCS) and antibiotics. They were maintained in a humidified atmosphere of 5% CO2 and 95% air, at 37±0.1° C. Stocks were performed once a week to maintain continuous exponential growth.
For studies, Ishikawa cells were plated into 96-well microplates. The next day, the medium was changed to a phenol red-free DMEM containing 5% dFCS stripped of endogenous estrogens by dextran coated charcoal treatment.
At the end of the incubation period, APase activity was assayed by a method involving the hydrolysis of p-nitrophenyl phosphate to p-nitrophenol at pH 9.8 and spectrophotometric determination of the product at 405 nm.
In brief, the microplates were first rinsed twice with cold phosphate buffered solution and then placed at −80° C. for at least 15 minutes. After thawing at room temperature for 5-10 minutes, the plates were put on ice and 50 μl ice-cold solution containing 5 mM p-nitrophenyl phosphate was added to each well. The plates were warmed to room temperature to allow for the development of the enzymatic reaction (t0). After a 15 to 60 minute incubation period, the intensity of the yellow color generated by the production of p-nitrophenol was measured into each well at 405 nm using a microplate reader (Wallac, model 1420 Victor^2). […] Sigmoidal dose-response curves were plotted and EC50 (estrogenic effect) and IC50 (anti-estrogenic effect) values were calculated for each compound.

[6] = Homo sapiens, MCF7, 144 h, MCF-7, 10^−6 M, six days
[7] = Homo sapiens, MCF7, 144 h, MCF-7, 10^−8 M, six days

Row | Molecule | activity at 1 µM [1, 6] | activity at 0.01 µM [1, 7] | EC50 ([1]; Homo sapiens, MCF7, 144 h) | IC50 [2] | RBA (%) Mean ± S.E.M, ER α [2] | change in vivo at 3 mg [3] | IC50 [4] | RBA (%) Mean ± S.E.M, ER β [4] | R (IC50s) αβ [4] | EC50 ([5]; Homo sapiens, Ishikawa, 96 h) | melting point | selectivity for the human recombinant estrogen receptor β [4] | estrogenic effect in alkaline phosphatase activity in the Ishikawa cell model [5] | Effect at 10^−6 M (% of control) ([1]; MCF-7, 10^−6 M, six days) | Effect at 10^−8 M (% of control) ([1]; MCF-7, 10^−8 M, six days) | EC50 [1] | IC50 ([2]; read-out: IC50 (nM) Mean ± S.E.M, ER α, 2 nM [3H]-E2, 4° C., 18-20 hours) | % stimulation vs vehicle (uterus weight) [3] | IC50 ([4]; read-out: IC50 (nM) Mean ± S.E.M, ER β, 2 nM [3H]-E2, 4° C., 18-20 hours) | EC50 [5]
1 | Oc1ccc2c(C3CCCCCC3)noc2c1 [Ex 65, 3-cycloheptyl-1,2-benzisoxazol-6-ol] | 260% | 123% | 27.6 ± 2 nM | 75.3 ± 5.4 nM | 2.5 ± 0.6% | 84% | 20.2 ± 4.2 nM | 13.2 ± 3.1% | 3.7 | 51.7 ± 6.2 nM | 156 °C |  |  |  |  |  |  |  |  | 
2 | Oc1ccc2c(C3CCCCC3)nsc2c1 [Ex 93, 3-cyclohexyl-1,2-benzisothiazol-6-ol] | 156% | 116% | 16.1 ± 2.6 nM | 88.6 ± 11.7 nM | 1.3 ± 0.2% | 88% | 37.8 ± 5.4 nM | 5.1 ± 0.8% | 2.3 | 124 ± 8.9 nM | 190 °C | marked selectivity | weak estrogenic effect |  |  |  |  |  |  | 
3 | Oc1ccc(Cc2noc3cc(O)ccc23)cc1 [Ex 73, 3-(4-hydroxybenzyl)-1,2-benzisoxazol-6-ol] | 134% | 94.2% | 365 ± 126 nM | 2910 ± 318 nM | 0.1 ± 0.0% | 52% | 485 ± 158 nM | 1.0 ± 0.3% | 6.0 |  |  | marked selectivity | weak estrogenic effect |  |  |  |  |  |  | 
4 | 1-(aminosulfonyl)-3-cyclohexyl-1H-indazol-6-yl-sulfamate [Ex 35] |  |  |  |  | 0.1 ± 0.02% |  |  | 0.9 ± 0.1% | 10.8 |  |  | marked selectivity | weak estrogenic effect | 162.6 % of control | 94.4 % of control | 58.2 ± 15 nM | 2690 ± 593 nM | 38% | 248 ± 48.7 nM | 374 ± 43 nM
5 | N#CC(Cc1ccc(O)c(O)c1)c1noc2cc(O)ccc12 (centres unmarked) [Ex 86, 2-(6-hydroxy-1,2-benzisoxazol-3-yl)-3-(3,4-dihydroxyphenyl) propanenitrile] | 139% | 85.6% | 466 ± 34 nM | 1890 ± 365 nM | 0.2 ± 0.03% | 25% | 135 ± 31 nM | 2.4 ± 0.4% | 14.1 |  | 154 °C | marked selectivity | weak estrogenic effect |  |  |  |  |  |  | 

Reference: patent US7977364B2, “Indazoles, benzisoxazoles and benzisothiazoles and their use as estrogenic agents” (Laboratoire Thermamex, priority 2004, dated 2011)
